Our source for the Ki values is patent publication US8399674B2, “Quinolines” (Hoffman-La Roche Inc., priority 2007, dated 2013).

The target of the experiment is T1, recombinant human 5-HT5A receptor (Homo sapiens, UniProt P47898).
T1 construct: expressed in transfected cells; host or cells: HEK-EBNA (Human Embryonic Kidney-EBNA) cells, transient transfection; membranes
The experiment is described as follows: [3H]LSD radioligand binding assay, membranes of HEK-EBNA cells transiently expressing the receptor. Conditions: [3H]LSD approx. 1 nM, 120 min room temperature, Ki from IC50 by Cheng-Prussoff equation, read-out: Ki (affinity towards the human 5-HT5A receptor). How it is done:
A [^3H] LSD radioligand binding assay was used to determine the affinity of the compounds for the recombinant human 5-HT5A receptor, in membranes from transiently (cDNA) expressed 5-HT5A receptors in Human Embryonic Kidney-EBNA (HEK-EBNA) cells.
Assay buffer consisted of Tris (50 mM) buffer containing 1 mM EGTA, 10 mM MgCl2 (pH 7.4) and 10 μM pargyline. The binding assay was carried out in 96-well-plates in the presence of [^3H]LSD (approximately 1 nM), approximately 2 μg/well of membrane protein, and 0.5 mg of Ysi-poly-1-lysine SPA beads in a final volume of 200 μl of buffer. Non-specific binding was defined using methiothepin 2 μM. Compounds were tested at 10 concentrations. All assays were conducted in duplicate and repeated at least two times. Assay plates were incubated for 120 min at room temperature before centrifugation. Bound ligand was determined using a Packard Topcount scintillation counter. IC50 values were calculated using a non-linear curve fitting program and Ki values calculated using the Cheng-Prussoff equation.

T1 sequence (P47898 whole entry): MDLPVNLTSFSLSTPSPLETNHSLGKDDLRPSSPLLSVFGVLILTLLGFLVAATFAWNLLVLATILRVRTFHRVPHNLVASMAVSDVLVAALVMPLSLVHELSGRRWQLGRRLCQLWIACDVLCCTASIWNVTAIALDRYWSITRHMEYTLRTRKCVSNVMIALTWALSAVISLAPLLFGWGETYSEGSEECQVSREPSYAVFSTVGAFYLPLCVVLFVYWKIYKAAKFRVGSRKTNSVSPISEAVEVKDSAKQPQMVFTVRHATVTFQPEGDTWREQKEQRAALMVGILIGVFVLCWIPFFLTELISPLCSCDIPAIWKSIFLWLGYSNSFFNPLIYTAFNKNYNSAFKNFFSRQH

Take `c1ccc(OCCNc2ccc3cc(NCc4cccnc4)ccc3n2)cc1` [Example 1, N2-(2-Phenoxy-ethyl)-N6-pyridin-3-ylmethyl-quinoline-2,6-diamine]: the Ki (commonly the equilibrium dissociation constant of an inhibitor or competing ligand from its target) amounted to 22 nM.
For `COc1ccccc1CNc1ccc2cc(CCc3ccccc3)ccc2n1` [Example 4, (2-Methoxy-benzyl)-(6-phenethyl-quinolin-2-yl)-amine] the value was 104 nM.
Take `COc1ccccc1CNc1ccc2cc(NCc3cccnc3)ccc2n1` [Example 6, N2-(2-Methoxy-benzyl)-N6-pyridin-3-ylmethyl-quinoline-2,6-diamine]: the Ki is 27 nM.
Next, `c1ccc(OCCNc2ccc3cc(NCc4ccncc4)ccc3n2)cc1` [Example 7, N2-(2-Phenoxy-ethyl)-N6-pyridin-4-ylmethyl-quinoline-2,6-diamine]: 101 nM.
With `COc1ccccc1CNc1ccc2cc(NCc3ccccc3)ccc2n1` [Example 8, N6-Benzyl-N2-(2-methoxy-benzyl)-quinoline-2,6-diamine], the Ki was 22 nM.
On to `COc1ccccc1CNc1ccc2nc(NCCOc3ccccc3)ccc2c1` [Example 9, N6-(2-Methoxy-benzyl)-N2-(2-phenoxy-ethyl)-quinoline-2,6-diamine], for which the Ki stood at 26 nM.
Next, `COc1cccc(CNc2ccc3nc(NCCOc4ccccc4)ccc3c2)c1` [Example 10, N6-(3-Methoxy-benzyl)-N2-(2-phenoxy-ethyl)-quinoline-2,6-diamine]: 42 nM; `COc1ccccc1CNc1cc(-c2ccccc2)c2cc(NCc3cccnc3)ccc2n1` [Example 13, N2-(2-Methoxy-benzyl)-4-phenyl-N6-pyridin-3-ylmethyl-quinoline-2,6-diamine]: 11 nM.
With `COc1ccccc1CNc1ccc2cc(/C=C/c3cccnc3)ccc2n1` [Example 14, (2-Methoxy-benzyl)-[6-((E)-2-pyridin-3-yl-vinyl)-quinolin-2-yl]-amine], the inhibitory constant (Ki) came out at 60 nM.
For the molecule `COc1ccccc1CNc1ccc2nc(NCc3ccccc3OC)ccc2c1` [Example 15, N2,N6-Bis-(2-methoxy-benzyl)-quinoline-2,6-diamine], the inhibitory constant (Ki) was 17 nM.
As to `COc1cccc(CNc2ccc3nc(NCc4ccccc4OC)ccc3c2)c1` [Example 16, N6-(3-Methoxy-benzyl)-N2-(2-methoxy-benzyl)-quinoline-2,6-diamine], the Ki amounted to 17 nM.
For `COc1ccccc1CNc1ccc2cc(NCc3ccccc3OC(F)(F)F)ccc2n1` [Example 17, N2-(2-Methoxy-benzyl)-N6-(2-trifluoromethoxy-benzyl)-quinoline-2,6-diamine] the value was 25 nM; for `COc1ccccc1CNc1ccc2cc(CCc3cccnc3)ccc2n1` [Example 18, (2-Methoxy-benzyl)-[6-(2-pyridin-3-yl-ethyl)-quinolin-2-yl]-amine], 87 nM; for `COc1cccc(CNc2ccc3nc(NCc4ccccc4OC)cc(-c4ccccc4)c3c2)c1` [Example 19, N6-(3-Methoxy-benzyl)-N2-(2-methoxy-benzyl)-4-phenyl-quinoline-2,6-diamine], 22 nM.
For `COc1ccccc1CNc1ccc2nc(NCc3ccccc3OC)cc(-c3ccccc3)c2c1` [Example 20, N2,N6-Bis-(2-methoxy-benzyl)-4-phenyl-quinoline-2,6-diamine] the value was 30 nM.
As to `COc1ccccc1CNc1ccc2cc(NCCCn3ccnc3)ccc2n1` [Example 23, N6-(3-Imidazol-1-yl-propyl)-N2-(2-methoxy-benzyl)-quinoline-2,6-diamine], the inhibition constant (Ki) worked out at 129 nM.
Next, `Cc1ccc(CNc2ccc3cc(NCc4cccnc4)ccc3n2)o1` [Example 25, N2-(5-Methyl-furan-2-ylmethyl)-N6-pyridin-3-ylmethyl-quinoline-2,6-diamine]: 22 nM; `COc1ccccc1CNc1ccc2nc(NCc3ccc(C)o3)ccc2c1` [Example 27, N6-(2-Methoxy-benzyl)-N2-(5-methyl-furan-2-ylmethyl)-quinoline-2,6-diamine]: 30 nM.
Consider `COc1cccc(CNc2ccc3nc(NCc4ccc(C)o4)ccc3c2)c1` [Example 28, N6-(3-Methoxy-benzyl)-N2-(5-methyl-furan-2-ylmethyl)-quinoline-2,6-diamine], for which the inhibition constant (Ki) was found to be 44 nM.
In the case of `Cc1ccc(CNc2ccc3cc(NCc4ccccc4)ccc3n2)o1` [Example 29, N6-Benzyl-N2-(5-methyl-furan-2-ylmethyl)-quinoline-2,6-diamine], the inhibitory constant (Ki) stood at 32 nM.
Next, `COc1cc(F)ccc1CNc1cc(-c2ccccc2)c2cc(NCc3cccnc3)ccc2n1` [Example 31, N-2-(4-Fluoro-2-methoxy-benzyl)-4-phenyl-N-6-pyridin-3-ylmethyl-quinoline-2,6-diamine]: 17 nM; `COc1ccccc1CNc1cc(-c2ccccc2C)c2cc(NCc3cccnc3)ccc2n1` [Example 32, N2-(2-Methoxy-benzyl)-N6-pyridin-3-ylmethyl-4-o-tolyl-quinoline-2,6-diamine]: 12 nM.
For `COc1cccc(-c2cc(NCc3ccccc3OC)nc3ccc(NCc4cccnc4)cc23)c1` [Example 33, N-2-(2-Methoxy-benzyl)-4-(3-methoxy-phenyl)-N-6-pyridin-3-ylmethyl-quinoline-2,6-diamine] the value was 50 nM; for `COc1ccccc1CNc1cc(-c2cc(F)ccc2F)c2cc(NCc3cccnc3)ccc2n1` [Example 35, 4-(2,5-Difluoro-phenyl)-N2-(2-methoxy-benzyl)-N6-pyridin-3-ylmethyl-quinoline-2,6-diamine], 22 nM.
For `COc1cc(F)ccc1CNc1cc(-c2ccccc2)c2cc(NCc3ccccc3)ccc2n1` [Example 36, N-6-Benzyl-N-2-(4-fluoro-2-methoxy-benzyl)-4-phenyl-quinoline-2,6-diamine] the value was 42 nM; for `COc1cc(F)ccc1CNc1cc(-c2ccccc2)c2cc(NCc3ccncc3)ccc2n1` [Example 37, N-2-(4-Fluoro-2-methoxy-benzyl)-4-phenyl-N-6-&-pyridin-4-ylmethyl-quinoline-2,6-diamine], 40 nM.
In the case of `COc1cc(F)ccc1CNc1cc(-c2ccccc2C)c2cc(NCc3ccccc3)ccc2n1` [Example 38, N-6-2-Benzyl-N-2-(4-fluoro-2-methoxy-benzyl)-4-o-tolyl-quinoline-2,6-diamine], the Ki turned out to be 41 nM.
Regarding `COCCNc1cc(NCc2ccc(F)cc2OC)nc2ccc(NCc3ccccc3)cc12` [Example 42, N6-Benzyl-N2-(4-fluoro-2-methoxy-benzyl)-N4-(2-methoxy-ethyl)-quinoline-2,4,6-triamine], the inhibition constant Ki stood at 169 nM.
For `COc1ccccc1CNc1ccc2cc(COc3ccccc3)ccc2n1` [Example 43, (2-Methoxy-benzyl)-(6-phenoxymethyl-quinolin-2-yl)-amine] the value was 73 nM; for `COc1cc(F)ccc1CNc1cc(N)c2cc(NCc3ccccc3)ccc2n1` [Example 44, N6-Benzyl-N2-(4-fluoro-2-methoxy-benzyl)-quinoline-2,4,6-triamine], 40 nM; for `COc1ccccc1CNc1cc(N)c2cc(NCc3ccccc3)ccc2n1` [Example 47, N6-Benzyl-N2-(2-methoxy-benzyl)-quinoline-2,4,6-triamine], 30 nM.
Take `Cc1ccc(CNc2ccc3cc(CNc4cccnc4)ccc3n2)o1` [Example 49, (5-Methyl-furan-2-ylmethyl)-[6-(pyridin-3-ylaminomethyl)-quinolin-2-yl]-amine]: the Ki was 128 nM.
For `COc1ccccc1CNc1cc(N)c2cc(NCc3cccnc3)ccc2n1` [Example 51, N2-(2-Methoxy-benzyl)-N6-pyridin-3-ylmethyl-quinoline-2,4,6-triamine] the value was 15 nM; for `Cc1ccc(CNc2cc(N)c3cc(NCc4cccnc4)ccc3n2)o1` [Example 54, N2-(5-Methyl-furan-2-ylmethyl)-N6-pyridin-3-ylmethyl-quinoline-2,4,6-triamine], 22 nM.
Take `Cc1ccc(CNc2cc(N)c3cc(NCc4ccccc4)ccc3n2)o1` [Example 55, N6-Benzyl-N2-(5-methyl-furan-2-ylmethyl)-quinoline-2,4,6-triamine]: the inhibitory constant (Ki) was found to be 22 nM.
Consider `COc1cccc(CNc2ccc3cc(NCc4cccnc4)ccc3n2)c1` [Example 57, N2-(3-Methoxy-benzyl)-N6-pyridin-3-ylmethyl-quinoline-2,6-diamine], for which the inhibition constant Ki is 37 nM.
For `c1cncc(CNc2ccc3nc(NCc4cccc5c4OCO5)ccc3c2)c1` [Example 73, N2-Benzo[1,3]dioxol-4-ylmethyl-N6-pyridin-3-ylmethyl-quinoline-2,6-diamine] the value was 27 nM.
For `COc1ccc(NC(=O)Nc2ccc3nc(NCc4ccccc4OC)ccc3c2)cc1` [Example 79, 1-[2-(2-Methoxy-benzylamino)-quinolin-6-yl]-3-(4-methoxy-phenyl)-urea] the value was 30 nM; for `COc1ccc(OC(=O)Nc2ccc3nc(NCc4ccccc4OC)ccc3c2)cc1` [Example 80, [2-(2-Methoxy-benzylamino)-quinolin-6-yl]-carbamic acid 4-methoxy-phenyl ester], 87 nM; for `COc1ccccc1CNc1ccc2cc(NS(=O)(=O)Nc3ccc(F)cc3)ccc2n1` [Example 81, N-(4-fluorophenyl)-N′-{2-[(2-methoxybenzyl)amino]quinolin-6-yl}sulfamide], 40 nM.
